Measured values: patent US8420676B2, “Oxazolidinone derivatives” (Dong-A Pharmaceuticals Co. Ltd., priority 2003, dated 2013)
Converted amounts (≈) assume the structure as drawn.

Legend:
[1] = Assay for solubility in distilled water (turbidity by naked eye); type: physicochemical; details: average of three runs; for solubility at 2 min: thermodynamic from solid
Description: The derivatives of the present invention were added to 200 μl of distilled water and then the solution was stirred for 2 minutes. The turbidity of the solution was watched through naked eye.
When the derivatives were not dissolved completely, 50 μl of distilled water was added to the solution and then the turbidity of the solution was assayed in the above manner to find a point of becoming transparent solution.
When 2 mg of the derivatives was first added to distilled water and completely dissolved so that the solution became transparent, 2 mg of the derivatives was added more to the solution and then state of the solution was watched. The derivatives of the present invention were added to the five times and then solubility of the solution was assayed for. The assay for solubility was carried out the three times repeatedly in the above method and the results were averaged.

ICR mice = experiment: Test of acute toxicity by oral administration to mouse; type: in vivo; details: 1% hydroxypropylmethylcellulose, observed 2 weeks
Description: To test acute toxicity of the compounds of the present invention, the following experiment was carried out.
A mixture of 1% hydroxypropylmethylcellulose and 200 mg of one selected from the group consisting of the compounds 10, 12, 16, 17, 20, 22, 24 and 27 was administrated to 5 ICR mice (5-Week old males, 20 g±2 g by weight). And then lethality for 2 weeks, weight, symptoms etc. was watched to determine Minimum Lethal Dose (MLD, mg/kg). […]

[2] = tested on: vancomycin resistant Enterococci (VRE); experiment: Assay for in vitro antibacterial activity, agar dilution (VRE); details: Enterococcus, read-out: Minimum Inhibitory Concentration (MIC50) VRE
[3] = tested on: methicillin resistant Staphylococcus aureus (MRSA); experiment: Assay for in vitro antibacterial activity, agar dilution (MRSA); details: read-out: Minimum Inhibitory Concentration (MIC50) MRSA

| Structure (SMILES) | solubility at 2 min [1] [µg/mL] | Minimum Lethal Dose (MLD) (ICR mice) [mg/kg] | MIC50 [2] [µg/mL] | MIC50 [3] [µg/mL] | Solubility [1] [µg/mL] |
| --- | --- | --- | --- | --- | --- |
| Cc1nnc(-c2ccc(-c3ccc(N4C[C@H](COC(=O)CN)OC4=O)cc3F)cn2)o1 [Compound 27, (R)-3-(4-(2-(2-methyl-[1,3,4]oxadiazole-5-yl)pyridin-5-yl)-3-fluorophenyl)-5-glycyloxymethyl oxazolidin-2-one trifluoroacetic acid] | > 50000 | >1000 | – | – | – |
| Cc1nnc(-c2ccc(-c3ccc(N4C[C@H](CO)OC4=O)cc3F)cn2)o1 [Compound 16, (R)-3-(4-(2-(2-methyl-[1,3,4]oxadiazol-5-yl)pyridin-5-yl)-3-fluorophenyl)-5-hydroxymethyl oxazolidin-2-one] | 20 (≈ 54 µM) | >1000 | 1 (≈ 2.7 µM) | 0.5 (≈ 1.35 µM) | – |
| CC(C)[C@H](N)C(=O)OC[C@H]1CN(c2ccc(-c3ccc(-c4nnn(C)n4)nc3)c(F)c2)C(=O)O1 [Compound 20, (R)-3-(4-(2-(2-methyltetrazol-5-yl)pyridin-5-yl)-3-fluorophenyl)-5-(L-valyloxy)methyl oxazolidin-2-one trifluoroacetic acid] | – | >1000 | – | – | 4700 (≈ 10000 µM) |
| Cn1nnc(-c2ccc(-c3ccc(N4C[C@H](COC(=O)CN)OC4=O)cc3F)cn2)n1 [Compound 12, (R)-3-(4-(2-(2-methyltetrazol-5-yl)pyridin-5-yl)-3-fluorophenyl)-5-glycyloxymethyl oxazolidin-2-one trifluoroacetic acid] | – | >1000 | – | – | 28000 (≈ 65500 µM) |
| NCC(=O)OC[C@H]1CN(c2ccc(-c3ccc(-n4ccnn4)nc3)c(F)c2)C(=O)O1 [Compound 22, (R)-3-(4-(2-([1,2,3]triazol-1-yl)pyridin-5-yl)-3-fluorophenyl)-5-glycyloxymethyl oxazolidin-2-one trifluoroacetic acid] | – | >1000 | 1 (≈ 2.42 µM) | 1 (≈ 2.42 µM) | – |
| O=C1O[C@@H](CO)CN1c1ccc(-c2ccc(-n3cncn3)nc2)c(F)c1 [Compound 17, (R)-3-(4-(2-[1,2,4]triazol-1-ylpyridin-5-yl)-3-fluorophenyl)-5-hydroxymethyl oxazolidin-2-one] | – | >1000 | 1 (≈ 2.81 µM) | 1 (≈ 2.81 µM) | – |
| Cn1nnc(-c2ccc(-c3ccc(N4C[C@H](CO)OC4=O)cc3F)cn2)n1 [Compound 10, (R)-3-(4-(2-(2-methyltetrazol-5-yl)pyridin-5-yl)-3-fluorophenyl)-5-hydroxymethyl oxazolidin-2-one] | 10 (≈ 27 µM) | >1000 | 0.25 (≈ 0.675 µM) | 0.5 (≈ 1.35 µM) | – |
